# Source: the OligoGym collection
# HELM strings list units from the 5' end as sugar, base in round brackets, then linkage (d deoxyribose, r ribose, m 2'-O-methyl, p phosphodiester). Strings are as the collection lists them; they lack the last nucleoside at the 3' end of the tested compound. [moe] = 2'-O-(2-methoxyethyl) (MOE); [sp] = phosphorothioate linkage; [m5C] = 5-methylcytosine
# Target: SMN2
# Assay: mouse, dose not given
# Conditions: ASO
row,Substance,3 h FOB score
1,RNA1{[moe]([m5C])[sp].[moe](A)[sp].[moe]([m5C])[sp].[moe](T)[sp].[moe](T)[sp].[moe](T)[sp].[moe]([m5C])[sp].[moe](A)[sp].[moe](T)[sp].[moe](A)[sp].[moe](A)[sp].[moe](T)[sp].[moe](G)[sp].[moe]([m5C])[sp].[moe](T)p.[moe](G)[sp].[moe](G)}$$$$ (last 3' nucleoside missing),0 score 0-7
2,RNA1{[moe]([m5C])[sp].[moe](A)[sp].[moe]([m5C])[sp].[moe](T)[sp].[moe](T)[sp].[moe](T)[sp].[moe]([m5C])[sp].[moe](A)[sp].[moe](T)[sp].[moe](A)[sp].[moe](A)[sp].[moe](T)[sp].[moe](G)[sp].[moe]([m5C])p.[moe](T)p.[moe](G)[sp].[moe](G)}$$$$ (last 3' nucleoside missing),0 score 0-7
3,RNA1{[moe]([m5C])[sp].[moe](A)[sp].[moe]([m5C])[sp].[moe](T)[sp].[moe](T)[sp].[moe](T)[sp].[moe]([m5C])[sp].[moe](A)[sp].[moe](T)[sp].[moe](A)[sp].[moe](A)[sp].[moe](T)[sp].[moe](G)p.[moe]([m5C])[sp].[moe](T)[sp].[moe](G)[sp].[moe](G)}$$$$ (last 3' nucleoside missing),0 score 0-7
4,RNA1{[moe]([m5C])[sp].[moe](A)[sp].[moe]([m5C])[sp].[moe](T)[sp].[moe](T)[sp].[moe](T)[sp].[moe]([m5C])[sp].[moe](A)[sp].[moe](T)[sp].[moe](A)[sp].[moe](A)[sp].[moe](T)[sp].[moe](G)p.[moe]([m5C])[sp].[moe](T)p.[moe](G)[sp].[moe](G)}$$$$ (last 3' nucleoside missing),0 score 0-7
5,RNA1{[moe]([m5C])[sp].[moe](A)[sp].[moe]([m5C])[sp].[moe](T)[sp].[moe](T)[sp].[moe](T)[sp].[moe]([m5C])[sp].[moe](A)[sp].[moe](T)[sp].[moe](A)[sp].[moe](A)[sp].[moe](T)p.[moe](G)p.[moe]([m5C])[sp].[moe](T)[sp].[moe](G)[sp].[moe](G)}$$$$ (last 3' nucleoside missing),0 score 0-7
6,RNA1{[moe]([m5C])[sp].[moe](A)[sp].[moe]([m5C])[sp].[moe](T)[sp].[moe](T)[sp].[moe](T)[sp].[moe]([m5C])[sp].[moe](A)[sp].[moe](T)[sp].[moe](A)[sp].[moe](A)[sp].[moe](T)p.[moe](G)p.[moe]([m5C])p.[moe](T)p.[moe](G)[sp].[moe](G)}$$$$ (last 3' nucleoside missing),0 score 0-7
7,RNA1{[moe]([m5C])[sp].[moe](A)[sp].[moe]([m5C])[sp].[moe](T)[sp].[moe](T)[sp].[moe](T)[sp].[moe]([m5C])[sp].[moe](A)[sp].[moe](T)[sp].[moe](A)[sp].[moe](A)p.[moe](T)[sp].[moe](G)[sp].[moe]([m5C])[sp].[moe](T)[sp].[moe](G)[sp].[moe](G)}$$$$ (last 3' nucleoside missing),0.25 score 0-7
8,RNA1{[moe]([m5C])[sp].[moe](A)[sp].[moe]([m5C])[sp].[moe](T)[sp].[moe](T)[sp].[moe](T)[sp].[moe]([m5C])[sp].[moe](A)[sp].[moe](T)[sp].[moe](A)[sp].[moe](A)p.[moe](T)[sp].[moe](G)[sp].[moe]([m5C])[sp].[moe](T)p.[moe](G)[sp].[moe](G)}$$$$ (last 3' nucleoside missing),0 score 0-7
9,RNA1{[moe]([m5C])[sp].[moe](A)[sp].[moe]([m5C])[sp].[moe](T)[sp].[moe](T)[sp].[moe](T)[sp].[moe]([m5C])[sp].[moe](A)[sp].[moe](T)[sp].[moe](A)[sp].[moe](A)p.[moe](T)p.[moe](G)p.[moe]([m5C])p.[moe](T)[sp].[moe](G)[sp].[moe](G)}$$$$ (last 3' nucleoside missing),0 score 0-7
10,RNA1{[moe]([m5C])[sp].[moe](A)[sp].[moe]([m5C])[sp].[moe](T)[sp].[moe](T)[sp].[moe](T)[sp].[moe]([m5C])[sp].[moe](A)[sp].[moe](T)[sp].[moe](A)p.[moe](A)p.[moe](T)[sp].[moe](G)[sp].[moe]([m5C])[sp].[moe](T)[sp].[moe](G)[sp].[moe](G)}$$$$ (last 3' nucleoside missing),1 score 0-7
11,RNA1{[moe]([m5C])[sp].[moe](A)[sp].[moe]([m5C])[sp].[moe](T)[sp].[moe](T)[sp].[moe](T)[sp].[moe]([m5C])[sp].[moe](A)[sp].[moe](T)p.[moe](A)[sp].[moe](A)[sp].[moe](T)[sp].[moe](G)[sp].[moe]([m5C])[sp].[moe](T)[sp].[moe](G)[sp].[moe](G)}$$$$ (last 3' nucleoside missing),0 score 0-7
12,RNA1{[moe]([m5C])[sp].[moe](A)[sp].[moe]([m5C])[sp].[moe](T)[sp].[moe](T)[sp].[moe](T)[sp].[moe]([m5C])[sp].[moe](A)[sp].[moe](T)p.[moe](A)[sp].[moe](A)[sp].[moe](T)[sp].[moe](G)[sp].[moe]([m5C])[sp].[moe](T)p.[moe](G)[sp].[moe](G)}$$$$ (last 3' nucleoside missing),0 score 0-7
13,RNA1{[moe]([m5C])[sp].[moe](A)[sp].[moe]([m5C])[sp].[moe](T)[sp].[moe](T)[sp].[moe](T)[sp].[moe]([m5C])[sp].[moe](A)[sp].[moe](T)p.[moe](A)p.[moe](A)p.[moe](T)p.[moe](G)[sp].[moe]([m5C])[sp].[moe](T)[sp].[moe](G)[sp].[moe](G)}$$$$ (last 3' nucleoside missing),0 score 0-7
14,RNA1{[moe]([m5C])[sp].[moe](A)[sp].[moe]([m5C])[sp].[moe](T)[sp].[moe](T)[sp].[moe](T)[sp].[moe]([m5C])[sp].[moe](A)p.[moe](T)p.[moe](A)[sp].[moe](A)[sp].[moe](T)[sp].[moe](G)[sp].[moe]([m5C])[sp].[moe](T)[sp].[moe](G)[sp].[moe](G)}$$$$ (last 3' nucleoside missing),0 score 0-7
15,RNA1{[moe]([m5C])[sp].[moe](A)[sp].[moe]([m5C])[sp].[moe](T)[sp].[moe](T)[sp].[moe](T)[sp].[moe]([m5C])[sp].[moe](A)p.[moe](T)p.[moe](A)p.[moe](A)[sp].[moe](T)[sp].[moe](G)[sp].[moe]([m5C])[sp].[moe](T)[sp].[moe](G)[sp].[moe](G)}$$$$ (last 3' nucleoside missing),1 score 0-7
16,RNA1{[moe]([m5C])[sp].[moe](A)[sp].[moe]([m5C])[sp].[moe](T)[sp].[moe](T)[sp].[moe](T)[sp].[moe]([m5C])[sp].[moe](A)p.[moe](T)p.[moe](A)p.[moe](A)p.[moe](T)[sp].[moe](G)[sp].[moe]([m5C])[sp].[moe](T)[sp].[moe](G)[sp].[moe](G)}$$$$ (last 3' nucleoside missing),0 score 0-7
17,RNA1{[moe]([m5C])[sp].[moe](A)[sp].[moe]([m5C])[sp].[moe](T)[sp].[moe](T)[sp].[moe](T)[sp].[moe]([m5C])p.[moe](A)[sp].[moe](T)[sp].[moe](A)[sp].[moe](A)[sp].[moe](T)[sp].[moe](G)[sp].[moe]([m5C])[sp].[moe](T)[sp].[moe](G)[sp].[moe](G)}$$$$ (last 3' nucleoside missing),0 score 0-7
